Assays:
HN31 cells = assay: Clonogenic test (surviving fraction), cancer cells; assay type: cell-based, human; details: Dox 2 μg mL^−1 or Ptx 33 ng mL^−1 + GNP 2.4×10^10 mL^−1 + laser 45 mJ cm^−2 + X-rays 4 Gy 6 hours after PNB
NOM9 cells = assay: Clonogenic test (surviving fraction), normal cells; details: quadrapeutics, X-rays 4 Gy 6 hours after PNB
Description: Evaluation of the long-term therapeutic response with a clonogenic test. We used EGFR-positive HN31 cells and EGFR-negative NOM9 cells. […] Thus the cells were exposed only to the internalized drug during the follow-up generation of PNBs. One to six hours afterwards, a single dose of X-rays (0-25 Gy) was applied.
To evaluate their colony-forming ability, the cells were trypsinized and replaced in 100 mm dishes in a free medium immediately after the treatment of samples. After 10 days of cultivation, the cells were stained with 0.5% crystal violet in absolute ethanol, and colonies with more than 50 cells were counted under a microscope. Plating efficiency was defined as the percentage of cells seeded that grew into colonies under a specific culture condition of a given cell line. […] All experiments were performed three times.

[1] = test system: HN31 squamous carcinoma cells; assay: Short-term complex viability (RRV, Trypan Blue exclusion and cell concentration) 72 h after treatment; assay type: cell-based, human; details: for increase of cancer cell viability with plain (non-conjugated) nanocarriers compared with C225-conjugated carriers: GNP-C225 + PNB; for drug concentration required, drugs administered alone, to bring complex viability of cancer cells to the levels of PNB-enhanced release: no PNB
Description: Short term response in vitro to co-localized administration of drug nanocarriers, GNPs and laser pulses. We used EGFR-positive HN31 (cancer) cells and EGFR-negative NOM9 (normal) cells. […] After incubation, GNPs and drug carriers were washed off. […] PNB lifetime was obtained for individual cells. The short-term viability was evaluated 72 hours after the treatment of samples as a complex viability parameter RRV that included the viability level V1 (measured in % with Trypan Blue exclusion test) and the cell concentration C: RRV=C/C0*V1,*100% , where C0 is the cell concentration in the intact sample.
The ability of the PNB mechanism to overcome drug resistance and to reduce non-specific toxicity was evaluated with two common drugs and carrier types. Water-soluble doxorubicin was encapsulated into PEG-coated 90 nm Doxil liposomes that were conjugated with anti-EGFR antibody, C225 (L-Dox-C225). Non-soluble paclitaxel was loaded into 14 nm micelles conjugated to the same antibody (M-Ptx-C225). Each type of drug-loaded nanocarrier was administered separately with gold NP-C225 conjugates. Cancer (HN31) and normal (NOM9) cells were incubated identically with NP-C225 and nanocarriers. Drug doses were reduced to the level that provided relatively high viability of both cell types when treated with nanocarriers alone (without PNBs).
After incubation, NPs and nanocarriers were washed off, the cells were exposed to a single laser pulse (70 ps, 532 nm, 40 mJ cm^−2) and the PNB lifetime was obtained for individual cells. […] The cell concentration and viability were measured at 72 hours after the PNB generation as the complex viability parameter that was normalized by that in intact cells (FIG. 8). […] (FIGS. 8a and 8b).
Short-term therapeutic response to quadrapeutics and other treatments in vitro. […] The radiation treatment was administered within 60 min after PNB generation, i.e. when the intracellular concentration of the released drug was close to the maximal.

Row | SMILES | cancer cell growth (clonogenicity) after quadrapeutics, mode D+PNB+XR6 (HN31 cells) | viability of identically treated normal cells (NOM9 cells) | fold higher concentration required for drug alone vs PNB-enhanced release [1] [fold] | increase of cancer cell viability with plain (non-conjugated) nanocarriers compared with C225-conjugated carriers [1] | drug concentration required, drugs administered alone, to bring complex viability of cancer cells to the levels of PNB-enhanced release [1] [µg/mL]
1 | CC(=O)O[C@H]1C(=O)[C@@]2(C)[C@H]([C@H](OC(=O)c3ccccc3)[C@]3(O)C[C@H](OC(=O)[C@H](O)[C@@H](NC(=O)c4ccccc4)c4ccccc4)C(C)=C1C3(C)C)[C@]1(OC(C)=O)CO[C@@H]1C[C@@H]2O [paclitaxel] | strong therapeutic effect | close to that of intact cells | 15 | several-fold | 1
2 | COc1cccc2c1C(=O)c1c(O)c3c(c(O)c1C2=O)C[C@@](O)(C(=O)CO)C[C@@H]3O[C@H]1C[C@H](N)[C@H](O)[C@H](C)O1 [doxorubicin] | – | – | 18 | several-fold | 85

— US20140120167A1, “MULTIFUNCTIONAL CHEMO- AND MECHANICAL THERAPEUTICS” (WILLIAM MARSH RICE UNIVERSITY, priority 2012, published 2014)
